Experimental findings from paper PMC6974402 (Nature, 2019) are described below.

One assay has as its target T1, SAP1 (Anopheles gambiae, UniProt Q7Q3U7).
T1 sequence (Q7Q3U7 18-127): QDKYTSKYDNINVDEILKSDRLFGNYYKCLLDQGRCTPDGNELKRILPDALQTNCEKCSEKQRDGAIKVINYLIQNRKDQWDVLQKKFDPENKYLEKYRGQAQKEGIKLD
In words: 1-NPN fluorescence displacement. In kind it is binding.

The target in another assay is T2, SAP3 (Anopheles gambiae, UniProt Q6H8Z2).
T2 sequence (Q6H8Z2 18-126): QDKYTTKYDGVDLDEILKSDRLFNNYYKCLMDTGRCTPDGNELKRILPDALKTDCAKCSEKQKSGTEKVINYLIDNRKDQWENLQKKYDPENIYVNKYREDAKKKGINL
Nature of the assay: 1-NPN fluorescence displacement. It is filed as binding.

Turning to `CC1(C)[C@H](C(=O)O[C@H](C#N)c2cccc(Oc3ccccc3)c2)[C@@H]1C=C(Br)Br` [deltamethrin], the IC50 at SAP1 and at SAP3 was over 10 µM in each case.

The molecule `CC1(C)C(C=C(Cl)Cl)C1C(=O)OC(C#N)c1cccc(Oc2ccccc2)c1` (stereo not drawn) [α-cypermethrin] yielded an IC50 on SAP1 of 9.02 µM.

As usually defined, the IC50 is the concentration that gives 50% inhibition. High values mean weaker potency in that assay, low ones greater potency in that assay.
